From ChEMBL document CHEMBL1914411, “Synthesis of lipophilic dimeric C-7/C-7-linked ciprofloxacin and C-6/C-6-linked levofloxacin derivatives. Versatile in vitro biological evaluations of monomeric and dimeric fluoroquinolone derivatives as potential antitumor, antibacterial or antimycobacterial agents” (Eur J Med Chem, 2011)
Converted amounts (≈) assume the structure as drawn. The source made the active and inactive calls. How the calls were made is not given here.

Legend:
[1] = tested on: Mycobacterium tuberculosis; experiment: Antimycobacterial activity against Mycobacterium tuberculosis H37Rv assessed as growth inhibition at 0.1 uM after 6 days by MTT colorimetric microassay; format: functional, organism-based
[2] = tested on: Enterococcus hirae; experiment: Antimicrobial activity against Enterococcus hirae CIP 5855 after 18 to 24 hrs by broth microdilution method; format: functional
[3] = tested on: Mycobacterium tuberculosis; experiment: Antimycobacterial activity against Mycobacterium tuberculosis H37Rv assessed as growth inhibition at 10 uM after 6 days by MTT colorimetric microassay; format: functional; conditions: 144 h, read-out: GI
[4] = tested on: Pseudomonas aeruginosa; experiment: Antimicrobial activity against Pseudomonas aeruginosa CIP 82.118 after 18 to 24 hrs by broth microdilution method; format: functional
[5] = tested on: Escherichia coli; experiment: Antimicrobial activity against Escherichia coli CIP 53126 after 18 to 24 hrs by broth microdilution method; format: functional
[6] = tested on: Staphylococcus aureus; experiment: Antimicrobial activity against Staphylococcus aureus CIP 4.83 after 18 to 24 hrs by broth microdilution method; format: functional
[7] = tested on: Staphylococcus aureus; experiment: Antimicrobial activity against multidrug-resistant Staphylococcus aureus isolate 1 after 18 to 24 hrs by broth microdilution method; format: functional
[8] = tested on: Staphylococcus aureus; experiment: Antimicrobial activity against multidrug-resistant Staphylococcus aureus isolate 2 after 18 to 24 hrs by broth microdilution method; format: functional
[9] = tested on: Staphylococcus aureus; experiment: Antimicrobial activity against methicillin-resistant Staphylococcus aureus ATCC 33592 after 18 to 24 hrs by broth microdilution method; format: functional
[10] = tested on: Staphylococcus aureus; experiment: Antimicrobial activity against methicillin-resistant Staphylococcus aureus ATCC 33591 after 18 to 24 hrs by broth microdilution method; format: functional

`CCCCCCCCCCCCCC(=O)OCC(=O)N1CCN(c2cc3c(cc2F)c(=O)c(C(=O)O)cn3C2CC2)CC1` was tested, and the “growth inhibition (GI)” value [1] was “inactive”, the MBC [2] was 31.2 µM (≈ 18.7 µg/mL) and the MIC [2] was 31.2 µM (≈ 18.7 µg/mL). For the same compound, the inhibition of growth at 10 µM [3] was > 95%, the MBC [4] was 250 µM (≈ 150 µg/mL) and the MIC [4] was 125 µM (≈ 75 µg/mL). For the same compound, the MBC [5] was 500 µM (≈ 300 µg/mL), the MIC [5] was 125 µM (≈ 75 µg/mL) and the MBC [6] was 7.8 µM (≈ 4.68 µg/mL). It also gave an MIC [6] of 7.8 µM (≈ 4.68 µg/mL).

`O=C(CCCCCCCCC(=O)OCN1CCN(c2cc3c(cc2F)c(=O)c(C(=O)O)cn3C2CC2)CC1)OCN1CCN(c2cc3c(cc2F)c(=O)c(C(=O)O)cn3C2CC2)CC1` was tested, and the “growth inhibition (GI)” value [1] was “inactive”, the MBC [2] was 250 µM (≈ 222 µg/mL) and the MIC [2] was 62.5 µM (≈ 55.6 µg/mL). It also gave an inhibition of growth at 10 µM [3] of 62%, an MBC [4] of 125 µM (≈ 111 µg/mL) and an MIC [4] of 31.2 µM (≈ 27.7 µg/mL). The MBC [5] was 62.5 µM (≈ 55.6 µg/mL), the MIC [5] was 31.2 µM (≈ 27.7 µg/mL) and the MBC [6] was 250 µM (≈ 222 µg/mL). The MIC [6] was 31.2 µM (≈ 27.7 µg/mL).

In the case of `C[C@H]1COc2c(N3CCN(C)CC3)c(F)cc3c(=O)c(C(=O)NCCCCCNC(=O)c4cn5c6c(c(N7CCN(C)CC7)c(F)cc6c4=O)OC[C@@H]5C)cn1c23`, the “growth inhibition (GI)” value [1] was “inactive”, the MBC [2] was 250 µM (≈ 197 µg/mL) and the MIC [2] was 125 µM (≈ 98.6 µg/mL). It also gave an inhibition of growth at 10 µM [3] of 60%, an MBC [4] of 250 µM (≈ 197 µg/mL) and an MIC [4] of 62.5 µM (≈ 49.3 µg/mL). It also gave an MBC [5] of 62.5 µM (≈ 49.3 µg/mL), an MIC [5] of 62.5 µM (≈ 49.3 µg/mL) and an MBC [6] of 500 µM (≈ 394 µg/mL). For the same compound, the MIC [6] was 125 µM (≈ 98.6 µg/mL).

With `CCCCCCC(=O)N1CCN(c2cc3c(cc2F)c(=O)c(C(=O)O)cn3C2CC2)CC1` the “growth inhibition (GI)” value [1] was “inactive”, the MBC [2] was 31.2 µM (≈ 13.8 µg/mL) and the MIC [2] was 31.2 µM (≈ 13.8 µg/mL). For the same compound, the MBC [7] was 500 µM (≈ 222 µg/mL), the MIC [7] was 62.5 µM (≈ 27.7 µg/mL) and the MBC [8] was > 500 µM. The MIC [8] was 250 µM (≈ 111 µg/mL), the MBC [9] was 0.24 µM (≈ 0.106 µg/mL) and the MIC [9] was 0.06 µM (≈ 0.0266 µg/mL). The inhibition of growth at 10 µM [3] was > 95%, the MBC [4] was 250 µM (≈ 111 µg/mL) and the MIC [4] was 62.5 µM (≈ 27.7 µg/mL). For the same compound, the MBC [5] was 31.2 µM (≈ 13.8 µg/mL), the MIC [5] was 31.2 µM (≈ 13.8 µg/mL) and the MBC [6] was ≤ 0.12 µM. For the same compound, the MIC [6] was ≤ 0.03 µM, the MBC [10] was 0.48 µM (≈ 0.213 µg/mL) and the MIC [10] was 0.06 µM (≈ 0.0266 µg/mL).

With `CCCCCCCCCC(=O)OCOC(=O)c1cn2c3c(c(N4CCN(C)CC4)c(F)cc3c1=O)OC[C@@H]2C` the “growth inhibition (GI)” value [1] was “inactive”, the MBC [2] was 1.9 µM (≈ 1.04 µg/mL) and the MIC [2] was ≤ 0.97 µM. The inhibition of growth at 10 µM [3] was > 95%, the MBC [4] was 3.9 µM (≈ 2.13 µg/mL) and the MIC [4] was ≤ 0.97 µM. For the same compound, the MBC [5] was ≤ 0.97 µM, the MIC [5] was ≤ 0.97 µM and the MBC [6] was ≤ 0.97 µM. For the same compound, the MIC [6] was ≤ 0.97 µM.

`CCCCCCCCCCCCNC(=O)c1cn2c3c(c(N4CCN(C)CC4)c(F)cc3c1=O)OC[C@@H]2C` was tested, and the “growth inhibition (GI)” value [1] was “inactive”, the MBC [2] was 3.9 µM (≈ 2.06 µg/mL) and the MIC [2] was 3.9 µM (≈ 2.06 µg/mL). For the same compound, the inhibition of growth at 10 µM [3] was > 95%, the MBC [4] was 250 µM (≈ 132 µg/mL) and the MIC [4] was 62.5 µM (≈ 33 µg/mL). It also gave an MBC [5] of 500 µM (≈ 264 µg/mL), an MIC [5] of 125 µM (≈ 66.1 µg/mL) and an MBC [6] of 15.6 µM (≈ 8.25 µg/mL). The MIC [6] was 3.9 µM (≈ 2.06 µg/mL).

`O=C(CCCCCCCCCCCCCC(=O)OCN1CCN(c2cc3c(cc2F)c(=O)c(C(=O)O)cn3C2CC2)CC1)OCN1CCN(c2cc3c(cc2F)c(=O)c(C(=O)O)cn3C2CC2)CC1` was tested, and the “growth inhibition (GI)” value [1] was “inactive”, the MBC [2] was 15.6 µM (≈ 15 µg/mL) and the MIC [2] was 7.8 µM (≈ 7.48 µg/mL). The MBC [7] was 500 µM (≈ 480 µg/mL), the MIC [7] was 62.5 µM (≈ 59.9 µg/mL) and the MBC [8] was 62.5 µM (≈ 59.9 µg/mL). The MIC [8] was 31.2 µM (≈ 29.9 µg/mL), the MBC [9] was 0.97 µM (≈ 0.93 µg/mL) and the MIC [9] was 0.12 µM (≈ 0.115 µg/mL). The MBC [4] was 250 µM (≈ 240 µg/mL), the MIC [4] was 62.5 µM (≈ 59.9 µg/mL) and the MBC [5] was 62.5 µM (≈ 59.9 µg/mL). For the same compound, the MIC [5] was 31.2 µM (≈ 29.9 µg/mL), the MBC [6] was ≤ 0.48 µM and the MIC [6] was ≤ 0.12 µM. It also gave an MBC [10] of 1.9 µM (≈ 1.82 µg/mL) and an MIC [10] of 0.48 µM (≈ 0.46 µg/mL).

In the case of `CCCCCC(=O)OCOC(=O)c1cn2c3c(c(N4CCN(C)CC4)c(F)cc3c1=O)OC[C@@H]2C`, the “growth inhibition (GI)” value [1] was “inactive” and the inhibition of growth at 10 µM [3] was > 95%.

`O=C(O)c1cn(C2CC2)c2cc(N3CCN(C(=O)Cc4ccccc4)CC3)c(F)cc2c1=O` was tested, and the “growth inhibition (GI)” value [1] was “inactive”, the MBC [2] was 7.8 µM (≈ 3.51 µg/mL) and the MIC [2] was 3.9 µM (≈ 1.75 µg/mL). The MBC [7] was 62.5 µM (≈ 28.1 µg/mL), the MIC [7] was 31.2 µM (≈ 14 µg/mL) and the MBC [8] was 15.6 µM (≈ 7.01 µg/mL). For the same compound, the MIC [8] was 15.6 µM (≈ 7.01 µg/mL), the MBC [9] was 0.24 µM (≈ 0.108 µg/mL) and the MIC [9] was 0.12 µM (≈ 0.0539 µg/mL). It also gave an MBC [4] of 250 µM (≈ 112 µg/mL), an MIC [4] of 62.5 µM (≈ 28.1 µg/mL) and an MBC [5] of 7.8 µM (≈ 3.51 µg/mL). For the same compound, the MIC [5] was 3.9 µM (≈ 1.75 µg/mL), the MBC [6] was ≤ 0.24 µM and the MIC [6] was ≤ 0.12 µM. The MBC [10] was 0.24 µM (≈ 0.108 µg/mL) and the MIC [10] was 0.12 µM (≈ 0.0539 µg/mL).

In the case of `CCC(=O)N1CCN(c2cc3c(cc2F)c(=O)c(C(=O)O)cn3C2CC2)CC1`, the “growth inhibition (GI)” value [1] was “inactive”, the MBC [2] was 3.9 µM (≈ 1.51 µg/mL) and the MIC [2] was 3.9 µM (≈ 1.51 µg/mL). It also gave an MBC [7] of 500 µM (≈ 194 µg/mL), an MIC [7] of 62.5 µM (≈ 24.2 µg/mL) and an MBC [8] of 31.2 µM (≈ 12.1 µg/mL). The MIC [8] was 31.2 µM (≈ 12.1 µg/mL), the MBC [9] was 0.48 µM (≈ 0.186 µg/mL) and the MIC [9] was 0.24 µM (≈ 0.093 µg/mL). It also gave an MBC [4] of 250 µM (≈ 96.9 µg/mL), an MIC [4] of 31.2 µM (≈ 12.1 µg/mL) and an MBC [5] of 500 µM (≈ 194 µg/mL). The MIC [5] was 3.9 µM (≈ 1.51 µg/mL), the MBC [6] was ≤ 0.97 µM and the MIC [6] was ≤ 0.48 µM. For the same compound, the MBC [10] was 0.97 µM (≈ 0.376 µg/mL) and the MIC [10] was 0.48 µM (≈ 0.186 µg/mL).
